# Results: ChEMBL document CHEMBL5518164, “Membrane-permeable tenofovir-di- and monophosphate analogues” (Eur J Med Chem, 2024)
# The source made the active and inactive calls. The calls are words filed in the database; no cut-off is given here.
# Tests used:
# [1] = Prodrug conversion of the compound in phosphate buffer saline assessed as (R)-9-(2-(phosphonomethoxy)propyl)adenine formation by measuring half life at pH 7.3 by RP18-HPLC analysis; assay type: ADME
# [2] = Prodrug conversion of the compound in phosphate buffer saline assessed as (R)-9-(2-(phosphonomethoxy)propyl)adenine formation by measuring half life in presence of pig liver esterase at pH 7.3 by RP18-HPLC analysis; assay type: ADME, Sus scrofa
# [3] = Half life of the compound in human CEM/0 cell extracts by RP18-HPLC analysis; assay type: ADME, CCRF-CEM
# [4] = Lipophilicity of the compound assessed as retention time by RP-HPLC analysis; assay type: physicochemical
# [5] = system: Human immunodeficiency virus 1; experiment: Antiviral activity against HIV-1 HE infected in wild type human CEM/0 cells assessed as inhibition of virus-induced giant cell formation incubated for 4 to 5 days by light microscopy; assay type: functional, organism-based; settings: Human immunodeficiency virus 1, HE, CCRF-CEM
# [6] = system: Human immunodeficiency virus 2; experiment: Antiviral activity against HIV-2 ROD infected in wild type human CEM/0 cells assessed as inhibition of virus-induced giant cell formation incubated for 4 to 5 days by light microscopy; assay type: functional, organism-based; settings: Human immunodeficiency virus 2, ROD, CCRF-CEM
# [7] = system: Human immunodeficiency virus 2; experiment: Antiviral activity against HIV-2 ROD infected in thymidine kinase deficient human CEM cells assessed as inhibition of virus-induced giant cell formation incubated for 4 to 5 days by light microscopy; assay type: functional, organism-based; settings: Human immunodeficiency virus 2, ROD, CCRF-CEM
# [8] = Cytotoxicity against human CEM cells assessed as inhibition of cell proliferation; assay type: toxicity, cell-based, CCRF-CEM
# [9] = Selectivity index, ratio of CC50 for cytotoxicity against human CEM cells to EC50 for antiviral activity against HIV-2 ROD infected in thymidine kinase deficient human CEM cells; assay type: toxicity, cell-based; settings: read-out: Ratio CC50/EC50
# [10] = system: Human immunodeficiency virus 1; experiment: Potency index, ratio of Tenofovir EC50 to test compound EC50 for antiviral activity against HIV-1 HE infected in wild type human CEM/0 cells; assay type: functional
# [11] = system: Human immunodeficiency virus 2; experiment: Potency index, ratio of Tenofovir EC50 to test compound EC50 for antiviral activity against HIV-2 ROD infected in wild type human CEM/0 cells; assay type: functional
# [12] = Prodrug conversion of the compound in phosphate buffer saline assessed as Tenofovir monophosphate formation by measuring half life at pH 7.3 by RP18-HPLC analysis; assay type: ADME
# [13] = Prodrug conversion of the compound in phosphate buffer saline assessed as Tenofovir monophosphate by measuring half life in presence of pig liver esterase at pH 7.3 by RP18-HPLC analysis; assay type: ADME, Sus scrofa
# [14] = system: Human immunodeficiency virus; experiment: Substrate activity at HIV reverse transcriptase assessed as n+1 band formation incubated for 30 mins in presence of primer/template mixture by primer extension assay based fluorescence analysis
# [15] = system: Human immunodeficiency virus; experiment: Substrate activity at HIV reverse transcriptase assessed as n+1 band formation incubated for 30 mins in presence of primer/template mixture and dNTPs by primer extension assay based fluorescence analysis
# [16] = system: Human immunodeficiency virus; experiment: Substrate activity at HIV reverse transcriptase assessed as full elongation of primer by measuring n+5 band formation incubated for 30 mins in presence of primer/template mixture and dNTPs by primer extension assay based fluorescence analysis
# [17] = system: Human immunodeficiency virus; experiment: Substrate activity at HIV reverse transcriptase assessed as elongation of primer at 97.6 to 12500 uM incubated for 30 mins in presence of primer/template mixture and dNTPs by primer extension assay based fluorescence analysis; settings: dose 97.6-12500 µM
# [18] = system: Human immunodeficiency virus; experiment: Inhibition of HIV reverse transcriptase assessed as inhibition of elongation of primer at 25000 uM incubated for 30 mins in presence of primer/template mixture and dNTPs by primer extension assay based fluorescence analysis
# [19] = system: Human immunodeficiency virus; experiment: Substrate activity at HIV reverse transcriptase assessed as n+1 band formation at 25000 uM incubated for 30 mins in presence of primer/template mixture and dNTPs by primer extension assay based fluorescence analysis
# [20] = system: Human immunodeficiency virus; experiment: Inhibition of HIV reverse transcriptase assessed as inhibition of elongation of primer at 25000 uM incubated for 30 mins in presence of primer/template mixture and 250 uM dNTPs by primer extension assay based fluorescence analysis
# [21] = system: Human immunodeficiency virus; experiment: Substrate activity at HIV reverse transcriptase assessed as elongation of primer at 97.6 to 12500 uM incubated for 30 mins in presence of primer/template mixture and 250 uM dNTPs by primer extension assay based fluorescence analysis; settings: dose 97.6-12500 µM
# [22] = system: Human immunodeficiency virus; experiment: Substrate activity at HIV reverse transcriptase assessed as n+1 band formation at 97.6 to 12500 uM incubated for 30 mins in presence of primer/template mixture and 250 uM dNTPs by primer extension assay based fluorescence analysis; settings: dose 97.6-12500 µM
# [23] = target: T1, DNA polymerase subunit gamma-1 (Homo sapiens) (UniProt P54098); experiment: Substrate activity at human DNA polymerase gamma assessed as elongation of primer at 250 uM incubated for 120 mins in presence of primer/template mixture by primer extension assay based fluorescence analysis
# T1 sequence (whole entry): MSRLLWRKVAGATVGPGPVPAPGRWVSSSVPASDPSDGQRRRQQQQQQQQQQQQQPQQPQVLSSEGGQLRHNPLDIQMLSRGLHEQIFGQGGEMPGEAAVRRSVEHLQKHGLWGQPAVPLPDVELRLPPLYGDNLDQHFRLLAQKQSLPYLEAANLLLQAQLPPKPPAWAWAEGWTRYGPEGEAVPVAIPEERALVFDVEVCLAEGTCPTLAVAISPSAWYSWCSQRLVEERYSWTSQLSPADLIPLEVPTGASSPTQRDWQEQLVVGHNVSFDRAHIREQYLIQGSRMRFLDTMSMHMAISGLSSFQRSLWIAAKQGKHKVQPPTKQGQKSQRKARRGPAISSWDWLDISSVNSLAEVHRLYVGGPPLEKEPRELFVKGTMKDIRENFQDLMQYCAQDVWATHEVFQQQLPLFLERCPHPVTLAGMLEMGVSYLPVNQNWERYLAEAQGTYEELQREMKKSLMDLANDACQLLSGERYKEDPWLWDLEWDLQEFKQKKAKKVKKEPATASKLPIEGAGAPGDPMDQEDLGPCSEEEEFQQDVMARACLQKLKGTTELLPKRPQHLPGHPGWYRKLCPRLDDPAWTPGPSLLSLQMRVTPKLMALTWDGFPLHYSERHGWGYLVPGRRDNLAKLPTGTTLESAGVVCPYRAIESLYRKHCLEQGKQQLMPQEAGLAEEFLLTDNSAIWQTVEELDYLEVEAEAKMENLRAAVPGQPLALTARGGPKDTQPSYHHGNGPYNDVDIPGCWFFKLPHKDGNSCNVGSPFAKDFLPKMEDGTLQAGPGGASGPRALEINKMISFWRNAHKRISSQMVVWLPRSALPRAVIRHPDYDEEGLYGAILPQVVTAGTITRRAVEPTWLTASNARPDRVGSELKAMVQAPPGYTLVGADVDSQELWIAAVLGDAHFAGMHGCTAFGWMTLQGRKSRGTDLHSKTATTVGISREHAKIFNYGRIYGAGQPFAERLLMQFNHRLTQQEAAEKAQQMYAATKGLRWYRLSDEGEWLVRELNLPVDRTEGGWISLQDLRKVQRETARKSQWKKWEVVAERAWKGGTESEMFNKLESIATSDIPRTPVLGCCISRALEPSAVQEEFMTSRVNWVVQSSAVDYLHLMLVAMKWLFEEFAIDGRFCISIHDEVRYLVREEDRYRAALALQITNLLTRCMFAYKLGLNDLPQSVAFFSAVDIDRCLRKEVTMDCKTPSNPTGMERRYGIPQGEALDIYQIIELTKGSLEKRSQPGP
# [24] = target: T1, DNA polymerase subunit gamma-1 (Homo sapiens); experiment: Substrate activity at human DNA polymerase gamma assessed as elongation of primer at 250 uM incubated for 120 mins in presence of primer/template mixture and dNTPs by primer extension assay based fluorescence analysis
# [25] = system: Human immunodeficiency virus 2; experiment: Potency index, ratio of Tenofovir EC50 to test compound EC50 for antiviral activity against HIV-2 ROD infected in thymidine kinase deficient human CEM cells; assay type: functional
# [26] = system: Human immunodeficiency virus; experiment: Substrate activity at HIV reverse transcriptase assessed as n+1 band formation incubated for 30 mins in presence of primer/template mixture and 2.6 fold excess of dNTPs by primer extension assay based fluorescence analysis
t1/2 [1],t1/2 [2],half-life [3],Retention_time [4],EC50 [5],EC50 [6],EC50 [7],Activity [14],Activity [15],Activity [16],inhibition [18],inhibition [20],Activity [23],Activity [24],Compound,CC50 [8],selectivity ratio [9],other results
51 h,0.683 h,2.1 h,17.5 min,150 nM,76 nM,58 nM,–,–,–,–,–,–,–,CCCCCCCCCCCCCCCCCCOP(=O)(OCc1ccc(OC(=O)CCCC)cc1)OP(=O)(O)OP(=O)(O)CO[C@H](C)Cn1cnc2c(N)ncnc21 (stereo partly specified),57200 nM,986,Ratio EC50 [10]: 13; Ratio EC50 [11]: 23
–,–,–,–,–,–,–,Active,Active,Active,Active,Active,inactive,Active,C[C@H](Cn1cnc2c(N)ncnc21)OCP(=O)(O)OP(=O)(O)OP(=O)(O)O,–,–,Activity [17]: Active; Activity [19]: inactive; Activity [21]: Active; Activity [22]: Active
> 200 h,> 50 h,> 8 h,14.2 min,360 nM,700 nM,27 nM,Active,inactive,Active,Active,Active,inactive,Active,CCCCCCCCCCCCCCCCCCOP(=O)(O)OP(=O)(O)OP(=O)(O)CO[C@H](C)Cn1cnc2c(N)ncnc21,> 100000 nM,> 3700,Ratio EC50 [25]: 32; Activity [26]: Active

Compound,t1/2 [1],t1/2 [2],half-life [3],Retention_time [4],EC50 [5],EC50 [6],EC50 [7],Activity [14],Activity [15],Activity [16],inhibition [18],inhibition [20],Activity [23],Activity [24],CC50 [8],selectivity ratio [9],other results
CCCCCCCCC(=O)Oc1ccc(COOP(=O)(O)OP(=O)(O)OP(=O)(O)CO[C@H](C)Cn2cnc3c(N)ncnc32)cc1,9 h,0.00267 h,0.97 h,16.4 min,1130 nM,350 nM,560 nM,–,–,–,–,–,–,–,48900 nM,87,t1/2 [12]: > 200 h; t1/2 [13]: 3.6 s
